Test results: ChEMBL document CHEMBL1201862, “PubChem BioAssay data set” (2004)
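48-hour exposure; five concentrations; linearly interpolated endpoints. The concentration for 50% growth inhibition is given as GI50.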 Calls of active or inactive are those of the source. Rule as the data show it: active = GI50 up to about 1.1 µM and inactive = higher.

Legend:
Assay in all cases: NCI-60 cell line screen, 48 h
UACC-257 = system: UACC-257
SNB-75 = system: SNB-75
EKVX = system: EKVX
OVCAR-8 = system: OVCAR-8
HOP-62 = system: HOP-62
U-251 = system: U-251
SK-MEL-2 = system: SK-MEL-2
SK-OV-3 = system: SK-OV-3
RPMI-8226 = system: RPMI-8226
UACC-62 = system: UACC-62
K562 = system: K562
SN12C = system: SN12C
HCT-116 = system: HCT-116
TK-10 = system: TK-10
NCI-H460 = system: NCI-H460
NCI-H522 = system: NCI-H522
ACHN = system: ACHN

Measured: GI50

O=C1c2c(c(-c3ccccc3)c(-c3ccccc3)c(-c3ccccc3)c2-c2ccccc2)C(=O)N1c1cccc(Br)c1
inactive: UACC-257 > 100 µM | SNB-75 > 100 µM | EKVX > 100 µM | OVCAR-8 > 100 µM | HOP-62 > 100 µM | U-251 > 100 µM | SK-MEL-2 > 100 µM | SK-OV-3 > 100 µM | RPMI-8226 > 100 µM | UACC-62 > 100 µM | K562 > 100 µM | SN12C > 100 µM | HCT-116 > 100 µM | TK-10 > 100 µM | NCI-H460 > 100 µM | NCI-H522 > 100 µM

COc1ccc(C2S/C(=C\c3ccc(OC)cc3OC)C(=O)N2NC(=O)Cc2ccccc2)cc1 (centres undefined)
inactive: UACC-257 > 100 µM | SNB-75 > 100 µM | OVCAR-8 > 100 µM | HOP-62 > 100 µM | U-251 > 100 µM | SK-MEL-2 > 100 µM | SK-OV-3 > 100 µM | RPMI-8226 > 100 µM | UACC-62 > 100 µM | K562 98.9 µM | SN12C > 100 µM | HCT-116 > 100 µM | ACHN > 100 µM | TK-10 > 100 µM | NCI-H460 > 100 µM | NCI-H522 > 100 µM

CC(C)(c1ccccc1)c1ccc(Oc2ccc3c(c2)-c2nc-3nc3[nH]c(nc4nc(nc5[nH]c(n2)c2ccc(Oc6ccc(C(C)(C)c7ccccc7)cc6)cc52)-c2cc(Oc5ccc(C(C)(C)c6ccccc6)cc5)ccc2-4)c2ccc(Oc4ccc(C(C)(C)c5ccccc5)cc4)cc32)cc1
inactive: UACC-257 > 100 µM | SNB-75 27.8 µM | EKVX > 100 µM | OVCAR-8 > 100 µM | HOP-62 64.6 µM | U-251 71.3 µM | SK-MEL-2 > 100 µM | SK-OV-3 > 100 µM | RPMI-8226 > 100 µM | UACC-62 > 100 µM | K562 > 100 µM | HCT-116 > 100 µM | ACHN > 100 µM | TK-10 80.2 µM | NCI-H460 > 100 µM | NCI-H522 86.9 µM

COc1cc(OC)c2c(c1)C(=O)C(CC(C)O)=CC2=O (centres undefined)
inactive: UACC-257 16.6 µM | SNB-75 25.8 µM | EKVX 12 µM | OVCAR-8 15.7 µM | HOP-62 19.4 µM | U-251 17.9 µM | SK-MEL-2 19.7 µM | SK-OV-3 18 µM | RPMI-8226 11.5 µM | UACC-62 11.8 µM | K562 14.9 µM | SN12C 18.7 µM | HCT-116 12.5 µM | ACHN 16.6 µM | TK-10 19.9 µM | NCI-H460 23.6 µM | NCI-H522 14.4 µM

Cc1nc2c(n1CCN(C)C)C(=O)c1ccccc1C2=O
inactive: UACC-257 14 µM | SNB-75 33.1 µM | EKVX 17.9 µM | OVCAR-8 17.2 µM | HOP-62 26.9 µM | U-251 14.5 µM | SK-MEL-2 12.2 µM | SK-OV-3 45.8 µM | UACC-62 11.9 µM | K562 18.8 µM | SN12C 16.6 µM | HCT-116 14.5 µM | ACHN 14.8 µM | TK-10 38.8 µM | NCI-H460 9.84 µM | NCI-H522 5.38 µM

CCc1cccc(C(C)CC)c1/N=C(/NC(=O)c1ccccc1C(=O)N/C(=N/c1c(CC)cccc1C(C)CC)SC)SC (centres undefined)
inactive: UACC-257 54.3 µM | EKVX 35.6 µM | OVCAR-8 59.2 µM | HOP-62 31.1 µM | U-251 26.2 µM | SK-MEL-2 40.9 µM | SK-OV-3 28.6 µM | RPMI-8226 30.1 µM | UACC-62 20.9 µM | K562 27.7 µM | SN12C 40.1 µM | HCT-116 34.4 µM | ACHN 36.1 µM | TK-10 30.8 µM | NCI-H460 50.4 µM | NCI-H522 28.2 µM

CCOc1ccccc1NC(=O)C(=O)c1c(O)c2ccc(O)cc2oc1=O
inactive: UACC-257 > 100 µM | SNB-75 > 100 µM | EKVX > 100 µM | OVCAR-8 > 100 µM | HOP-62 > 100 µM | U-251 > 100 µM | SK-MEL-2 > 100 µM | SK-OV-3 > 100 µM | UACC-62 > 100 µM | K562 > 100 µM | SN12C > 100 µM | HCT-116 > 100 µM | ACHN > 100 µM | TK-10 > 100 µM | NCI-H460 > 100 µM | NCI-H522 > 100 µM

COc1c(CC(C)=O)ccc2c1C(=O)c1ccc(C=O)c(OC(C)=O)c1C2=O
inactive: UACC-257 14.3 µM | SNB-75 20.5 µM | EKVX 23.3 µM | OVCAR-8 9.51 µM | U-251 13.9 µM | SK-MEL-2 15.2 µM | SK-OV-3 55.5 µM | RPMI-8226 8.45 µM | UACC-62 4.55 µM | K562 11.6 µM | SN12C 12.9 µM | HCT-116 11.9 µM | ACHN 15.1 µM | TK-10 27.5 µM | NCI-H460 23.3 µM | NCI-H522 2.15 µM
